Format: physicochemical
Experimental: The dissolution profile of the sitagliptin tannate complexes of Example 1 and 2 using simulated saliva fluid (SSF) and simulated gastric fluid (SGF) by using the following two stage dissolution protocol:
Stage 1: A sample of sitagliptin tannate complex of Example 1 or 2 was placed in 10 mL of SSF, which was prepared by dissolving 8.0 g of NaCl, 0.19 g of potassium phosphate monobasic, and 2.38 g of sodium phosphate dibasic in 1 L of water, and adjusting to pH 6.8 with phosphoric acid, heated to 37° C., for 1 minute and an aliquot was removed.
Stage 2: The remaining solution transferred to 500 mL of SGF, which was prepared by dissolving 2.0 g of NaCl in 1 L of water, and adding 1.4 mL of concentrated hydrochloric acid. The SGF was stirred at 37° C. with apparatus 2 (paddles), and aliquots were collected at 6 time-points.
The aliquots were then analyzed by HPLC to determine the amount of free sitagliptin.

| Substance | solubility of the complex at neutral pH | release in acidic pH (acidic pH, such as that found in the stomach) | release rate at neutral pH (neutral pH, such as that found in the mouth) | sitagliptin release from the complex in SGF (stage 2) (simulated gastric fluid (low pH), 37° C., apparatus 2 (paddles), 6 time-points, FIG. 1 / FIG. 2) | sitagliptin released from the complex in SSF (stage 1) (simulated saliva fluid pH 6.8, 37° C., 1 minute, FIG. 1 / FIG. 2) |
| --- | --- | --- | --- | --- | --- |
| sitagliptin tannate complex | not soluble or almost not soluble | immediate release | negligible release rate | – | – |
| sitagliptin tannate complex [Example 2] | – | – | – | rapidly released | very little to no sitagliptin was released |
